Where two headings read alike, the source gives them in different places. One block for each molecule: values may come before it.
How the values were obtained:
[1] = assay type: in vivo, male SD-JCL rats; conditions: rat
Description: Five male SD-JCL rats with a mean body weight of 250 g were anesthetized with pentobarbital and the abdominal hairs were clipped with an electric clipper (20 cm^2 5×4 cm). Each of coating samples A though D was then coated on the clipped area. At 1, 2, 4 and 6 hours after application (till 8 hours for evaluation of sustained effect), 0.5 ml of venous blood was collected from the tail vain of each rat and the plasma concentration of molsidomine was determined by the following procedure.
In a mixture of 20 mg of lauric acid, which is a percutaneous absorption promotor according to this invention, and 177 mg of propylene glycol was dissolved 3 mg of clonidine to prepare a coating sample. Using this sample, a percutaneous absorption test was conducted in the same manner as Example 1. The plasma concentration of clonidine was determined by the following procedure.
The venous blood was centrifuged and the plasma was separated. A 0.2 ml of the plasma was extracted with 1 ml of 0.01 N NaOH and 5 ml of chloroform, and from 4 ml of the chloroform layer, the chloroform was evaporated. The residue was dissolved in 0.2 ml of a mixture of 0.05 M sodium acetate, acetonitrile and tetrahydrofuran (70:30:0.2, v/v), and 50 μl of this solution was subjected to liquid chromatography to determine the clonidine concentration. A column of μ-Bondapak C18 was employed. The evaluation of percutaneous absorption was carried out in the same manner as described in Example 1. […] Similar tests were conducted using oleic acid, lauryl alcohol, oleinamide and laurylamine as well but all of them were ineffective for clonidine as […].

[2] = Excerpt: Then, the present inventors attempted at a systematic classification of compounds which could contribute to the percutaneous absorption of molsidomine and performed a series of experiments.
[3] = cited from earlier work

SMILES: Clc1cccc(Cl)c1N=C1NCCN1 [clonidine]
- clonidine detection in the blood ([1]; 3 mg clonidine, 20 mg lauric acid, 177 mg propylene glycol, percutaneous): not detected

SMILES: OCC(O)CO [glycerin]
- promotion of percutaneous absorption of molsidomine ([2]; added to molsidomine): none of them proved meaningfully effective

- effectiveness as percutaneous absorption promoter for clonidine ([1]; percutaneous, clonidine): not effective
SMILES: CCCCCCCCCCCC(=O)O [lauric acid]

SMILES: CCCCCCCCCCCCO [lauryl alcohol]
- effectiveness as percutaneous absorption promoter for clonidine ([1]; percutaneous, clonidine): ineffective

- effectiveness as percutaneous absorption promoter for clonidine ([1]; percutaneous, clonidine): ineffective
SMILES: CCCCCCCCCCCCN [laurylamine]

SMILES: COC(=O)c1ccccc1O [methyl salicylate]
- promotion of percutaneous absorption of molsidomine [2]: none of them proved meaningfully effective

SMILES: CCOC(=O)[N-]c1cn(N2CCOCC2)n[o+]1 [molsidomine, N-ethoxycarbonyl-3-morpholinosydnonimine]
- side effects ([3]; background): few side effects
- vasodilator activity ([3]; background): excellent vasodilator activity
- percutaneous absorption of molsidomine administered alone ([3]; percutaneous route, alone): not well absorbed

- effectiveness as percutaneous absorption promoter for clonidine ([1]; in vivo): ineffective
SMILES: CCCCCCCC/C=C\CCCCCCCC(=O)O [oleic acid]

SMILES: CCCCCCCC/C=C\CCCCCCCC(N)=O [oleinamide]
- effectiveness as percutaneous absorption promoter for clonidine ([1]; percutaneous, clonidine): ineffective

SMILES: CC(O)CO (centres unmarked) [propylene glycol]
- promotion of percutaneous absorption of molsidomine ([2]; added to molsidomine): none of them proved meaningfully effective

SMILES: O=C(O)c1ccccc1O [salicylic acid]
- promotion of percutaneous absorption of molsidomine ([2]; added to molsidomine): none of them proved meaningfully effective

SMILES: OC[C@@H](O)[C@@H](O)[C@H](O)[C@@H](O)CO [sorbitol]
- promotion of percutaneous absorption of molsidomine [2]: none of them proved meaningfully effective
